IC50 data for 28 compounds are collected here from patent US9242987B2, “Heterocyclyl pyrazolopyrimidine analogues as JAK inhibitors” (Cellzome Limited, priority 2009, dated 2016).

For one assay, the target named is T1, JAK3 (Homo sapiens, UniProt P52333).
T1 construct: endogenous in cells; host or cells: Mixed Molt4/Ramos lysate (1:2)
T1 sequence (P52333 1-1124): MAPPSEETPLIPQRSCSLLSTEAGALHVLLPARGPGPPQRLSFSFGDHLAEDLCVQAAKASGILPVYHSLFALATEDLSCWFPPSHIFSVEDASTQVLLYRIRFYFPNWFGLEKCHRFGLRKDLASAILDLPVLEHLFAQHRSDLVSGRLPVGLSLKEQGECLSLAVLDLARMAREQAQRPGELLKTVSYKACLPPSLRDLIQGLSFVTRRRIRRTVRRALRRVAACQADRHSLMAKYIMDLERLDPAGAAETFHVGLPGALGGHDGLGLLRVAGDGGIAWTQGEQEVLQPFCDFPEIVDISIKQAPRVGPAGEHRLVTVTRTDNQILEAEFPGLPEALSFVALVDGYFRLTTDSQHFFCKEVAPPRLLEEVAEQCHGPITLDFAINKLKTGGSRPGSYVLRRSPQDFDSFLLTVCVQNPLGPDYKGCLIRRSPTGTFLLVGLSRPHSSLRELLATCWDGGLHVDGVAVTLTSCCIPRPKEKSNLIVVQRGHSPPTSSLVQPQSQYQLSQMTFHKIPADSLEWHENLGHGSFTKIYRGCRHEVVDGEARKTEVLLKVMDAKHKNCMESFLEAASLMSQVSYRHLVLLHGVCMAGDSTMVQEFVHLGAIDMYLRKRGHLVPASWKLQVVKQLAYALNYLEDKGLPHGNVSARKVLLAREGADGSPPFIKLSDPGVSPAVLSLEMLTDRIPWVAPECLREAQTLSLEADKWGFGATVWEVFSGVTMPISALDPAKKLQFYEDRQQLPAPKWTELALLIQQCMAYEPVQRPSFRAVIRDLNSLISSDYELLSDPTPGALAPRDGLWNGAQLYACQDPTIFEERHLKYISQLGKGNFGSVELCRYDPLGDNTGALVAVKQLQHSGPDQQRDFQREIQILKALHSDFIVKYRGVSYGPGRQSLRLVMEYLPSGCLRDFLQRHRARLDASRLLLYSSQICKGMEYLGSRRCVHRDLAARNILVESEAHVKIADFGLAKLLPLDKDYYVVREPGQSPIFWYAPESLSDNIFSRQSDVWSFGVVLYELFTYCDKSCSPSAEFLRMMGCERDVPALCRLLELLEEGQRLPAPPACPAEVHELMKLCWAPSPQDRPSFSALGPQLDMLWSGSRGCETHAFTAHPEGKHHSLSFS
In words: Kinobeads assay, JAK3. In kind it is binding. The following applies: mixed Molt4/Ramos cell lysate, dot blot detection. A digest of the protocol: (§1)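 Lysate from Molt4 and Ramos cells combined 1:2 at 10 mg/mL total protein met test compound and an aminopyrido-pyrimidine affinity matrix for 3 h in the cold. Captured JAK2 and JAK3, after elution, were measured by specific-antibody dot blot on an infrared system; dose-response curves yielded IC50.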

A further assay has as its target T2, JAK2 (Homo sapiens, UniProt O60674).
T2 construct: endogenous in cells; host or cells: Mixed Molt4/Ramos lysate (1:2)
Kind of assay: Kinobeads assay, JAK2. In kind it is binding. The following applies: mixed Molt4/Ramos cell lysate, dot blot detection. Put shortly: as §1

pIC50: −log10 of the molar value.

T2 sequence (O60674 whole entry): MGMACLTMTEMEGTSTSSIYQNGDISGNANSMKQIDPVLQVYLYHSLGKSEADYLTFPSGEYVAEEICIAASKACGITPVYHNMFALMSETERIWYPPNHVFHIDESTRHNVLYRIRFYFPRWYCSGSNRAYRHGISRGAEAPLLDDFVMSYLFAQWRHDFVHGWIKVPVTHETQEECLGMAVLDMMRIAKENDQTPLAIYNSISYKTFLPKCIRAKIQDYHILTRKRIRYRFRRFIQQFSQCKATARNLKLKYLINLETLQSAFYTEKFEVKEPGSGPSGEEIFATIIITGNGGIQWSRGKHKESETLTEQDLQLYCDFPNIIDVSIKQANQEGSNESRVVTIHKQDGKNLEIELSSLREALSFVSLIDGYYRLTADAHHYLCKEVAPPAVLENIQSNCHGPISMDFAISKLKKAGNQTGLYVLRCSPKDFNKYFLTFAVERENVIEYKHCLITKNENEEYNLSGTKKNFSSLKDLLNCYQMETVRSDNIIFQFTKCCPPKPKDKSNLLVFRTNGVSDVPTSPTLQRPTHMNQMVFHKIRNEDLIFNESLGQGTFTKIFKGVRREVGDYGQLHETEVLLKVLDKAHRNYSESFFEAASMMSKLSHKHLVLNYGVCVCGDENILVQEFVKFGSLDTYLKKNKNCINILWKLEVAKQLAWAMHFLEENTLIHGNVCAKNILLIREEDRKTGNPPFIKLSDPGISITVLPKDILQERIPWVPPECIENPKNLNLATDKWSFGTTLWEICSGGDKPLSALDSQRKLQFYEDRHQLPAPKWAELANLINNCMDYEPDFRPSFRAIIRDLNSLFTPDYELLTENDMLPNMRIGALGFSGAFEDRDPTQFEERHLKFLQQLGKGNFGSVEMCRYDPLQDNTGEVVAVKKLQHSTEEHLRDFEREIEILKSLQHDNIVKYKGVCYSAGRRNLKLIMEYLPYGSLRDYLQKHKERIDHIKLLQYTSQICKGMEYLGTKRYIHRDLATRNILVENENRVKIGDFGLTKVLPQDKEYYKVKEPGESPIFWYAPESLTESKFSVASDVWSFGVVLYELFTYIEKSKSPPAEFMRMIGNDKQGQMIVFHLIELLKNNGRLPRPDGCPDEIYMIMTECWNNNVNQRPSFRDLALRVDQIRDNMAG

Consider `COc1cc(-n2ncc3cnc(Nc4cnn(C)c4)nc32)ccc1F` [Example 58, 1-(4-Fluoro-3-methoxyphenyl)-N-(1-methyl-1H-pyrazol-4-yl)-1H-pyrazolo[3,4-d]pyrimidin-6-amine], for which the pIC50 (usually the negative decadic logarithm of the IC50, by convention in mol/L) on JAK3 was 6.00 to 7.00; against JAK2, ≤ 5.00.

In the case of `Cc1cc(-n2ncc3cnc(Nc4cnn(C)c4)nc32)ccc1F` [Example 60, 1-(4-fluoro-3-methylphenyl)-N-(1-methyl-1H-pyrazol-4-yl)-1H-pyrazolo[3,4-d]pyrimidin-6-amine], the negative logarithm of the IC50 (pIC50) on JAK3 is 6.00 to 7.00; against JAK2 it was 5.00 to 6.00.

As for `Cn1cc(Nc2ncc3cnn(-c4ccc(S(C)(=O)=O)cc4)c3n2)cn1` [Example 61, N-(1-methyl-1H-pyrazol-4-yl)-1-(4-(methylsulfonyl)phenyl)-1H-pyrazolo[3,4-d]pyrimidin-6-amine], the pIC50 against JAK3 is 6.00 to 7.00; against JAK2, 5.00 to 6.00.

As for `Cn1cc(Nc2ncc3cnn(Cc4cc(F)ccc4Cl)c3n2)cn1` [Example 62, 1-(2-Chloro-5-fluorobenzyl)-N-(1-methyl-1H-pyrazol-4-yl)-1H-pyrazolo[3,4-d]pyrimidin-6-amine], the pIC50 against JAK3 and against JAK2 was > 7.00 each time.

Take `Cn1cc(Nc2ncc3cnn(Cc4c(F)cccc4Cl)c3n2)cn1` [Example 63, 1-(2-Chloro-6-fluorobenzyl)-N-(1-methyl-1H-pyrazol-4-yl)-1H-pyrazolo[3,4-d]pyrimidin-6-amine]: the negative-log IC50 (pIC50) was > 7.00 at JAK3 and 6.00 to 7.00 against JAK2.

As to `Cn1cc(Nc2ncc3cnn(Cc4cc(Cl)ccc4F)c3n2)cn1` [Example 64], the pIC50 is > 7.00 on JAK3 and 6.00 to 7.00 at JAK2.

Consider `Cn1cc(Nc2ncc3cnn(Cc4ccccc4C(F)(F)F)c3n2)cn1` [Example 65, N-(1-Methyl-1H-pyrazol-4-yl)-1-(2-(trifluoromethyl)benzyl)-1H-pyrazolo[3,4-d]pyrimidin-6-amine], for which the pIC50 on JAK3 is > 7.00; on JAK2, 5.00 to 6.00.

Consider `Cn1cc(Nc2ncc3cnn(Cc4cccc(C(F)(F)F)c4)c3n2)cn1` [Example 66, N-(1-Methyl-1H-pyrazol-4-yl)-1-(3-(trifluoromethyl)benzyl)-1H-pyrazolo[3,4-d]pyrimidin-6-amine], for which the pIC50 was 6.00 to 7.00 against JAK3 and ≤ 5.00 against JAK2.

In the case of `Cn1cc(Nc2ncc3cnn(Cc4cccc(F)c4)c3n2)cn1` [Example 67, 1-(3-Fluorobenzyl)-N-(1-methyl-1H-pyrazol-4-yl)-1H-pyrazolo[3,4-d]pyrimidin-6-amine], the pIC50 at JAK3 was > 7.00; on JAK2 it was 6.00 to 7.00.

On to `Cn1cc(Nc2ncc3cnn(Cc4cccc(C#N)c4)c3n2)cn1` [Example 68, 3-((6-((1-Methyl-1H-pyrazol-4-yl)amino)-1H-pyrazolo[3,4-d]pyrimidin-1-yl)methyl)benzonitrile], for which the results for the pIC50 on JAK3 and against JAK2 were > 7.00 and 5.00 to 6.00, respectively.

For the compound `COc1cccc(Cn2ncc3cnc(Nc4cnn(C)c4)nc32)c1` [Example 69, 1-(3-Methoxybenzyl)-N-(1-methyl-1H-pyrazol-4-yl)-1H-pyrazolo[3,4-d]pyrimidin-6-amine], the pIC50 on JAK3 was > 7.00; against JAK2, 5.00 to 6.00.

As for `Cn1cc(Nc2ncc3cnn(Cc4cccc(Cl)c4)c3n2)cn1` [Example 70, 1-(3-Chlorobenzyl)-N-(1-methyl-1H-pyrazol-4-yl)-1H-pyrazolo[3,4-d]pyrimidin-6-amine], the results for the negative logarithm of the IC50 (pIC50) at JAK3 and on JAK2 were > 7.00 and 6.00 to 7.00, respectively.

Consider `COc1nn(CC(F)F)cc1Nc1ncc2cnn(-c3ccc(S(N)(=O)=O)cc3)c2n1` [Example 71, 4-(6-((1-(2,2-Difluoroethyl)-3-methoxy-1H-pyrazol-4-yl)amino)-1H-pyrazolo[3,4-d]pyrimidin-1-yl)benzenesulfonamide], for which the pIC50 at JAK3 is 6.00 to 7.00; on JAK2, ≤ 5.00.

Take `Cn1cc(Nc2ncc3cnn(Cc4cccc(Cl)c4F)c3n2)cn1` [Example 72, 1-(3-Chloro-2-fluorobenzyl)-N-(1-methyl-1H-pyrazol-4-yl)-1H-pyrazolo[3,4-d]pyrimidin-6-amine]: the pIC50 at JAK3 was > 7.00; on JAK2, 5.00 to 6.00.

With `OCCn1cc(Nc2ncc3cnn(Cc4c(F)cccc4F)c3n2)cn1` [Example 73, 2-(4-((1-(2,6-Difluorobenzyl)-1H-pyrazolo[3,4-d]pyrimidin-6-yl)amino)-1H-pyrazol-1-yl)ethanol], the pIC50 was > 7.00 on JAK3 and 6.00 to 7.00 against JAK2.

Turning to `Cn1cc(Nc2ncc3cnn(-c4ccccc4)c3n2)cn1` [Example 74, N-(1-Methyl-1H-pyrazol-4-yl)-1-phenyl-1H-pyrazolo[3,4-d]pyrimidin-6-amine], the results for the pIC50 at JAK3 and at JAK2 were 6.00 to 7.00 and 5.00 to 6.00, respectively.

With `Cn1cc(Nc2ncc3cnn(Cc4ccccc4NS(C)(=O)=O)c3n2)cn1` [Example 75, N-(2-((6-((1-Methyl-1H-pyrazol-4-yl)amino)-1H-pyrazolo[3,4-d]pyrimidin-1-yl)methyl)phenyl)methanesulfonamide], the pIC50 at JAK3 was > 7.00; against JAK2, 6.00 to 7.00.

Regarding `Cn1cc(Nc2ncc3cnn(Cc4ccccc4)c3n2)cn1` [Example 76, 1-Benzyl-N-(1-methyl-1H-pyrazol-4-yl)-1H-pyrazolo[3,4-d]pyrimidin-6-amine], the pIC50 is > 7.00 against JAK3 and 5.00 to 6.00 at JAK2.

Consider `Cn1cc(Nc2ncc3cnn(CCc4ccccc4F)c3n2)cn1` [Example 77, 1-(2-Fluorophenethyl)-N-(1-methyl-1H-pyrazol-4-yl)-1H-pyrazolo[3,4-d]pyrimidin-6-amine], for which the pIC50 against JAK3 is 6.00 to 7.00; on JAK2 it was ≤ 5.00.

With `Cn1cc(Nc2ncc3cnn(Cc4ccc(F)c(F)c4)c3n2)cn1` [Example 78, 1-(3,4-Difluorobenzyl)-N-(1-methyl-1H-pyrazol-4-yl)-1H-pyrazolo[3,4-d]pyrimidin-6-amine], the pIC50 against JAK3 is 6.00 to 7.00; against JAK2 it was 5.00 to 6.00.

Regarding `Cn1cc(Nc2ncc3cnn(Cc4cc(F)cc(F)c4)c3n2)cn1` [Example 79, 1-(3,5-Difluorobenzyl)-N-(1-methyl-1H-pyrazol-4-yl)-1H-pyrazolo[3,4-d]pyrimidin-6-amine], the pIC50 against JAK3 is > 7.00; at JAK2, 6.00 to 7.00.

With `Cn1cc(Nc2ncc3cnn(Cc4cccc(C(N)=O)c4)c3n2)cn1` [Example 80, 3-((6-((1-Methyl-1H-pyrazol-4-yl)amino)-1H-pyrazolo[3,4-d]pyrimidin-1-yl)methyl)benzamide], the pIC50 is > 7.00 on JAK3 and 5.00 to 6.00 on JAK2.

As for `Cn1cc(Nc2ncc3cnn(CCc4cccc(F)c4)c3n2)cn1` [Example 81, 1-(3-Fluorophenethyl)-N-(1-methyl-1H-pyrazol-4-yl)-1H-pyrazolo[3,4-d]pyrimidin-6-amine], the pIC50 against JAK3 was 6.00 to 7.00; at JAK2, 5.00 to 6.00.

`Cn1cc(Nc2ncc3cnn(CCc4ccc(F)cc4)c3n2)cn1` [Example 82, 1-(4-Fluorophenethyl)-N-(1-methyl-1H-pyrazol-4-yl)-1H-pyrazolo[3,4-d]pyrimidin-6-amine]: the pIC50 at JAK3 is 6.00 to 7.00; against JAK2, 5.00 to 6.00.

For `Cc1cccc(Cn2ncc3cnc(Nc4cnn(C)c4)nc32)c1` [Example 83, N-(1-Methyl-1H-pyrazol-4-yl)-1-(3-methylbenzyl)-1H-pyrazolo[3,4-d]pyrimidin-6-amine], the negative-log IC50 (pIC50) against JAK3 is > 7.00; against JAK2, 5.00 to 6.00.

Regarding `Cc1ccccc1Cn1ncc2cnc(Nc3cnn(C)c3)nc21` [Example 84, N-(1-Methyl-1H-pyrazol-4-yl)-1-(2-methylbenzyl)-1H-pyrazolo[3,4-d]pyrimidin-6-amine], the values for the pIC50 on JAK3 and against JAK2 were > 7.00 and 5.00 to 6.00, respectively.

On to `Cn1cc(Nc2ncc3cnn(Cc4ccccc4OC(F)(F)F)c3n2)cn1` [Example 85, N-(1-Methyl-1H-pyrazol-4-yl)-1-(2-(trifluoromethoxy)benzyl)-1H-pyrazolo[3,4-d]pyrimidin-6-amine], for which the pIC50 against JAK3 is > 7.00; at JAK2, 5.00 to 6.00.

Take `Cn1cc(Nc2ncc3cnn(Cc4cccc(OC(F)(F)F)c4)c3n2)cn1` [Example 86, N-(1-Methyl-1H-pyrazol-4-yl)-1-(3-(trifluoromethoxy)benzyl)-1H-pyrazolo[3,4-d]pyrimidin-6-amine]: the values for the pIC50 at JAK3 and at JAK2 were 6.00 to 7.00 and ≤ 5.00, respectively.
